Results on 14 compounds are retold here after ChEMBL document CHEMBL1134074, “Identification of novel potent hydroxamic acid inhibitors of peptidyl deformylase and the importance of the hydroxamic acid functionality on inhibition” (Bioorg Med Chem Lett, 2001).

One assay deals with Streptococcus pneumoniae. Briefly: Antibacterial activity against Streptococcus pneumoniae (SPNE) 9912. In kind it is functional.
In another assay the target is T1, Peptide deformylase (Staphylococcus aureus subsp. aureus Mu50, UniProt P68825).
T1 sequence (P68825 whole entry): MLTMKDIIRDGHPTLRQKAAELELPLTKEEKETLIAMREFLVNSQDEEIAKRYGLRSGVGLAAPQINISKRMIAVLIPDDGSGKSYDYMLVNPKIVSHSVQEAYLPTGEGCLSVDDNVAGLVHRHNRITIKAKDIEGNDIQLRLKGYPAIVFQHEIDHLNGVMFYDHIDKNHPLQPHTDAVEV
In words: Inhibition of Peptidyl deformylase (PDF).

In assay [1] the test system is Staphylococcus epidermidis. In words: Antibacterial activity against Staphylococcus epidermidis (SEPI) 12084. The format is functional.
A further assay relates to Escherichia coli. In words: Antibacterial activity against Escherichia coli (ECOL) 6674. The format is functional.
The next assay deals with Staphylococcus aureus. Briefly: Antibacterial activity against Staphylococcus aureus (SAUR) 9218. In kind it is functional.

In brackets after ≈: the same amount, converted by molar mass. Bounds are passed on as bounds.

Consider `O=C(CS)N(CCc1cccc(C(F)(F)F)c1)c1cccc2ccccc12`, for which the MIC (against Streptococcus pneumoniae; in assay [1]; against Escherichia coli; with Staphylococcus aureus) was more than 128 µg/mL each time. The IC50 – broadly, the concentration that gives 50% inhibition – on Peptide deformylase is more than 100 µM.

For `NNC(=O)C(NCc1cccc(C(F)(F)F)c1)c1cccc2ccccc12` (stereo unspecified), the MIC (in general, the lowest concentration found to suppress growth) was 32 µg/mL (≈ 85.7 µM) against Streptococcus pneumoniae, 128 µg/mL (≈ 343 µM) in assay [1], more than 128 µg/mL in the assay on Escherichia coli and 64 µg/mL (≈ 171 µM) against Staphylococcus aureus. The compound further came in with an IC50 against Peptide deformylase of 4.1 µM.

With `O=C(CO)N(CCc1cccc(C(F)(F)F)c1)c1cccc2ccccc12`, the MIC against Streptococcus pneumoniae is 32 µg/mL (≈ 85.7 µM); in assay [1], more than 128 µg/mL; against Escherichia coli it was more than 128 µg/mL; in the assay on Staphylococcus aureus, 32 µg/mL (≈ 85.7 µM). Further, the IC50 on Peptide deformylase was more than 100 µM.

Turning to `O=C(NO)C(NCc1cccc(C(F)(F)F)c1)c1ccc(F)c(F)c1` (stereo unspecified), the MIC (with Streptococcus pneumoniae; in assay [1]; in the assay on Escherichia coli; against Staphylococcus aureus) was more than 128 µg/mL each time. On Peptide deformylase, it took 0.69 µM to reach half-maximal inhibition (IC50).

Consider `NC(=O)C(NCc1cccc(C(F)(F)F)c1)c1cccc2ccccc12` (stereo unspecified), for which the MIC in the assay with Streptococcus pneumoniae is 16 µg/mL (≈ 44.6 µM); in assay [1], 64 µg/mL (≈ 179 µM); against Escherichia coli it was more than 128 µg/mL; in the assay on Staphylococcus aureus it was 64 µg/mL (≈ 179 µM). For the same compound, on Peptide deformylase, the IC50 was more than 100 µM.

Regarding `O=C(O)C(NCc1cccc(C(F)(F)F)c1)c1cccc2ccccc12` (stereo unspecified), the MIC against Streptococcus pneumoniae is 128 µg/mL (≈ 356 µM); in assay [1], more than 128 µg/mL; in the assay with Escherichia coli, more than 128 µg/mL; in the assay on Staphylococcus aureus it was more than 128 µg/mL. Besides, the IC50 at Peptide deformylase is more than 100 µM.

On to `O=C(NO)C(NCc1cccc(C(F)(F)F)c1)c1ccccc1F` (stereo unspecified), for which the MIC (against Streptococcus pneumoniae; in assay [1]; against Escherichia coli; with Staphylococcus aureus) was more than 128 µg/mL each time. The IC50 against Peptide deformylase is 0.46 µM.

Take `COc1cccc(C(NCc2cccc(C(F)(F)F)c2)C(=O)NO)c1` (stereo unspecified): the MIC (with Streptococcus pneumoniae; in assay [1]; with Escherichia coli; against Staphylococcus aureus) was more than 128 µg/mL each time.

As to `O=C(Cc1ccc(-c2ccccc2)cc1)NO`, the MIC (in the assay on Streptococcus pneumoniae; in assay [1]; against Escherichia coli; against Staphylococcus aureus) was more than 128 µg/mL throughout. Also, the IC50 against Peptide deformylase was more than 50 µM.

In the case of `COc1cc(Cl)c(CC(=O)NO)cc1OC`, the MIC (in the assay on Streptococcus pneumoniae; in assay [1]; against Escherichia coli; in the assay on Staphylococcus aureus) was more than 32 µg/mL throughout.

On to `O=C(NO)N(CCc1cccc(C(F)(F)F)c1)c1cccc2ccccc12`, for which the MIC was 32 µg/mL (≈ 85.5 µM) in the assay on Streptococcus pneumoniae, 32 µg/mL (≈ 85.5 µM) in assay [1], more than 128 µg/mL in the assay on Escherichia coli and 32 µg/mL (≈ 85.5 µM) in the assay with Staphylococcus aureus.

With `NNC(=O)N(CCc1cccc(C(F)(F)F)c1)c1cccc2ccccc12`, the MIC (against Streptococcus pneumoniae; in assay [1]; with Escherichia coli; against Staphylococcus aureus) was more than 128 µg/mL in each case. At Peptide deformylase, this compound showed an IC50 of more than 100 µM.

As for `O=C(NO)C(NCc1cccc(C(F)(F)F)c1)c1cccc2ccccc12` (stereo unspecified), the MIC (in the assay with Streptococcus pneumoniae; in assay [1]; against Escherichia coli; against Staphylococcus aureus) was more than 64 µg/mL throughout.

Consider `CC(=O)NO` [ACETOHYDROXAMIC ACID], for which the MIC (in the assay on Streptococcus pneumoniae; in assay [1]; in the assay on Escherichia coli; against Staphylococcus aureus) was more than 128 µg/mL in each case. Also, the IC50 against Peptide deformylase is more than 100 µM.
